How the values were obtained:
Assay in all cases: relative viability (nuclei count vs DMSO), 5 days (fraction); higher = more cells survive
201T = tested on: 201T
In short: (§1)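 Dosing by pin tool came one day after lung cancer cell lines were seeded in 1536-well plates, using either one drug or a fixed anchor-drug dose plus five library-drug doses (not always all listed) in √10 steps. After 5 days, nuclei were counted on 4× images. Relative viability is treated-well nuclei count divided by vehicle-well nuclei count, and values are medians of duplicate plates.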

ABC-1 = tested on: ABC-1
In short: as §1

COR-L23 = tested on: COR-L23
In short: as §1

EKVX = tested on: EKVX
In short: as §1

EPLC-272H = tested on: EPLC-272H
In short: as §1

HCC-44 = tested on: HCC-44
In short: as §1

LOU-NH91 = tested on: LOU-NH91
In short: as §1

NCI-H1650 = tested on: NCI-H1650
In short: as §1

NCI-H1734 = tested on: NCI-H1734
In short: as §1

NCI-H1793 = tested on: NCI-H1793
In short: as §1

NCI-H1993 = tested on: NCI-H1993
In short: as §1

NCI-H2023 = tested on: NCI-H2023
In short: as §1

NCI-H2085 = tested on: NCI-H2085
In short: as §1

NCI-H2170 = tested on: NCI-H2170
In short: as §1

NCI-H2347 = tested on: NCI-H2347
In short: as §1

NCI-H2405 = tested on: NCI-H2405
In short: as §1

NCI-H3122 = tested on: NCI-H3122
In short: as §1

NCI-H441 = tested on: NCI-H441
In short: as §1

NCI-H520 = tested on: NCI-H520
In short: as §1

NCI-H647 = tested on: NCI-H647
In short: as §1

PC-14 = tested on: PC-14
In short: as §1

RERF-LC-KJ = tested on: RERF-LC-KJ
In short: as §1

SW 900 = tested on: SW 900
In short: as §1

SMILES: Clc1ccc(Nc2nnc(Cc3ccncc3)c3ccccc23)cc1 [Vatalanib] + O=C(CCCCCCC(=O)Nc1ccccc1)NO [Vorinostat] (partner 1 µM)
- relative viability (201T; first compound 0.04 µM): 0.995
- relative viability (201T; first compound 0.1265 µM): 1.01
- relative viability (201T; first compound 0.4 µM): 1.06
- relative viability (201T; first compound 1.265 µM): 1.01
- relative viability (201T; first compound 4 µM): 1.07
- relative viability (ABC-1; first compound 0.04 µM): 1.06
- relative viability (ABC-1; first compound 0.1265 µM): 0.863
- relative viability (ABC-1; first compound 0.4 µM): 1.01
- relative viability (ABC-1; first compound 4 µM): 1.39
- relative viability (COR-L23; first compound 0.04 µM): 0.356
- relative viability (COR-L23; first compound 0.1265 µM): 0.553
- relative viability (COR-L23; first compound 0.4 µM): 0.499
- relative viability (COR-L23; first compound 1.265 µM): 0.417
- relative viability (COR-L23; first compound 4 µM): 0.469
- relative viability (EKVX; first compound 0.04 µM): 0.773
- relative viability (EKVX; first compound 0.1265 µM): 0.767
- relative viability (EKVX; first compound 0.4 µM): 0.831
- relative viability (EKVX; first compound 1.265 µM): 0.655
- relative viability (EKVX; first compound 4 µM): 0.665
- relative viability (EPLC-272H; first compound 0.04 µM): 0.438
- relative viability (EPLC-272H; first compound 0.1265 µM): 0.702
- relative viability (EPLC-272H; first compound 0.4 µM): 0.499
- relative viability (EPLC-272H; first compound 1.265 µM): 0.617
- relative viability (EPLC-272H; first compound 4 µM): 0.561
- relative viability (HCC-44; first compound 0.04 µM): 1.11
- relative viability (HCC-44; first compound 0.1265 µM): 1.08
- relative viability (HCC-44; first compound 0.4 µM): 1.09
- relative viability (HCC-44; first compound 1.265 µM): 1.04
- relative viability (HCC-44; first compound 4 µM): 1.07
- relative viability (LOU-NH91; first compound 0.04 µM): 0.939
- relative viability (LOU-NH91; first compound 0.1265 µM): 0.874
- relative viability (LOU-NH91; first compound 0.4 µM): 0.955
- relative viability (LOU-NH91; first compound 1.265 µM): 0.783
- relative viability (LOU-NH91; first compound 4 µM): 0.882
- relative viability (NCI-H1650; first compound 0.04 µM): 0.555
- relative viability (NCI-H1650; first compound 0.1265 µM): 0.517
- relative viability (NCI-H1650; first compound 0.4 µM): 0.616
- relative viability (NCI-H1650; first compound 1.265 µM): 0.473
- relative viability (NCI-H1650; first compound 4 µM): 0.534
- relative viability (NCI-H1734; first compound 0.04 µM): 0.804
- relative viability (NCI-H1734; first compound 0.1265 µM): 0.812
- relative viability (NCI-H1734; first compound 0.4 µM): 0.937
- relative viability (NCI-H1734; first compound 1.265 µM): 0.761
- relative viability (NCI-H1734; first compound 4 µM): 0.775
- relative viability (NCI-H1793; first compound 0.04 µM): 0.767
- relative viability (NCI-H1793; first compound 0.1265 µM): 0.845
- relative viability (NCI-H1793; first compound 0.4 µM): 0.97
- relative viability (NCI-H1793; first compound 1.265 µM): 0.66
- relative viability (NCI-H1793; first compound 4 µM): 0.71
- relative viability (NCI-H1993; first compound 0.04 µM): 0.728
- relative viability (NCI-H1993; first compound 0.1265 µM): 0.795
- relative viability (NCI-H1993; first compound 0.4 µM): 0.806
- relative viability (NCI-H1993; first compound 1.265 µM): 0.709
- relative viability (NCI-H1993; first compound 4 µM): 0.726
- relative viability (NCI-H2023; first compound 0.04 µM): 0.674
- relative viability (NCI-H2023; first compound 0.1265 µM): 0.688
- relative viability (NCI-H2023; first compound 0.4 µM): 0.716
- relative viability (NCI-H2023; first compound 1.265 µM): 0.5
- relative viability (NCI-H2023; first compound 4 µM): 0.628
- relative viability (NCI-H2085; first compound 0.04 µM): 0.868
- relative viability (NCI-H2085; first compound 0.1265 µM): 0.796
- relative viability (NCI-H2085; first compound 0.4 µM): 0.852
- relative viability (NCI-H2085; first compound 1.265 µM): 0.747
- relative viability (NCI-H2085; first compound 4 µM): 0.702
- relative viability (NCI-H2170; first compound 0.04 µM): 0.858
- relative viability (NCI-H2170; first compound 0.1265 µM): 0.853
- relative viability (NCI-H2170; first compound 0.4 µM): 0.825
- relative viability (NCI-H2170; first compound 1.265 µM): 0.743
- relative viability (NCI-H2170; first compound 4 µM): 0.764
- relative viability (NCI-H2347; first compound 0.04 µM): 0.473
- relative viability (NCI-H2347; first compound 0.1265 µM): 0.772
- relative viability (NCI-H2347; first compound 0.4 µM): 0.516
- relative viability (NCI-H2347; first compound 1.265 µM): 0.501
- relative viability (NCI-H2347; first compound 4 µM): 0.586
- relative viability (NCI-H2405; first compound 0.04 µM): 1.09
- relative viability (NCI-H2405; first compound 0.1265 µM): 0.938
- relative viability (NCI-H2405; first compound 0.4 µM): 1.06
- relative viability (NCI-H2405; first compound 4 µM): 0.976
- relative viability (NCI-H3122; first compound 0.04 µM): 1.27
- relative viability (NCI-H3122; first compound 0.1265 µM): 0.99
- relative viability (NCI-H3122; first compound 0.4 µM): 0.96
- relative viability (NCI-H3122; first compound 1.265 µM): 1.01
- relative viability (NCI-H3122; first compound 4 µM): 1.12
- relative viability (NCI-H441; first compound 0.04 µM): 0.907
- relative viability (NCI-H441; first compound 0.1265 µM): 0.589
- relative viability (NCI-H441; first compound 0.4 µM): 0.704
- relative viability (NCI-H441; first compound 1.265 µM): 0.776
- relative viability (NCI-H441; first compound 4 µM): 0.81
- relative viability (NCI-H520; first compound 0.04 µM): 0.621
- relative viability (NCI-H520; first compound 0.1265 µM): 0.642
- relative viability (NCI-H520; first compound 0.4 µM): 0.817
- relative viability (NCI-H520; first compound 1.265 µM): 0.661
- relative viability (NCI-H520; first compound 4 µM): 0.718
- relative viability (NCI-H647; first compound 0.04 µM): 0.658
- relative viability (NCI-H647; first compound 0.1265 µM): 0.685
- relative viability (NCI-H647; first compound 0.4 µM): 0.87
- relative viability (NCI-H647; first compound 1.265 µM): 0.641
- relative viability (NCI-H647; first compound 4 µM): 0.632
- relative viability (PC-14; first compound 0.04 µM): 0.746
- relative viability (PC-14; first compound 0.1265 µM): 0.721
- relative viability (PC-14; first compound 0.4 µM): 0.801
- relative viability (PC-14; first compound 1.265 µM): 0.716
- relative viability (PC-14; first compound 4 µM): 0.62
- relative viability (RERF-LC-KJ; first compound 0.04 µM): 0.714
- relative viability (RERF-LC-KJ; first compound 0.1265 µM): 0.747
- relative viability (RERF-LC-KJ; first compound 0.4 µM): 0.69
- relative viability (RERF-LC-KJ; first compound 1.265 µM): 0.665
- relative viability (RERF-LC-KJ; first compound 4 µM): 0.651
- relative viability (SW 900; first compound 0.04 µM): 0.551
- relative viability (SW 900; first compound 0.1265 µM): 0.549
- relative viability (SW 900; first compound 0.4 µM): 0.583
- relative viability (SW 900; first compound 1.265 µM): 0.344
- relative viability (SW 900; first compound 4 µM): 0.591
